{"source": "patent EP3336085A1", "about": "“PROCESS AND INTERMEDIATE FOR THE PREPARATION OF 1-(4-(2-((1-(3,4-DIFLUOROPHENYL)-1H-PYRAZOL-3-YL)METHOXY)ETHYL)PIPERAZIN-1-YL)ETHANONE” (Laboratorios del Dr. Esteve S.A., priority 2016, dated 2018)", "origin": "cited, not measured here", "key": {"[1]": {"biological_target": "sigma-1 (σ1) receptor (Homo sapiens, UniProt Q99720)", "sequence (Q99720 whole entry)": "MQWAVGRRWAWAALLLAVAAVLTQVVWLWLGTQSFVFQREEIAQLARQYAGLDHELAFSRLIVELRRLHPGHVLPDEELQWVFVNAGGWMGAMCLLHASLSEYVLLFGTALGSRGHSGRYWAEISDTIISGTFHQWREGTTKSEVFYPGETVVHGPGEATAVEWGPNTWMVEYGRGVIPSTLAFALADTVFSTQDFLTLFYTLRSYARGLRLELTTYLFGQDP"}}, "note": "Where two headings read alike, the source gives them in different places."}
{"smiles": "CC(=O)N1CCN(CCOCc2ccn(-c3ccc(F)c(F)c3)n2)CC1.Cl", "note": "[1-(4-(2-((1-(3,4-difluorophenyl)-1 H-pyrazol-3-yl)methoxy)ethyl)piperazin-1-yl)ethanone hydrochloride]", "values": [{"measurement": "water solubility", "setting": "pH=2", "value": "very soluble"}, {"measurement": "water solubility", "setting": "pH=7.4", "value": "very soluble"}, {"measurement": "sigma-1 (σ1) receptor antagonist selectivity", "setting": "[1]", "value": "highly selective"}]}
